Converted amounts (≈) assume the structure as drawn. Like-named read-outs stand apart in the source and are kept apart here.
Columns and labels:
[1] = Solubility in water, buffers and physiological fluids; format: physicochemical
Source text: Tipifarnib is a methyl-quinolinone with a molecular formula of C27H22Cl2N4O and molecular weight of 489.40. […] These are safe and well tested excipients that are commonly used in marketed products. The film coatings of the tablets contain hypromellose, titanium dioxide, lactose monohydrate, polyethylene glycol, and triacetin. “Tipifarnib derivative” as used herein refers not only to R208176 but also to molecules closely structurally related to either tipifarnib or R208176 with similar pharmacologic activity against HDV; this term includes, for example and without limitation, compounds described in U.S. Pat. Nos. 6,169,096; 6,365,600; 6,420,387; 6,734,194; 6,743,805; 6,838,467; and 7,253,183.
R208176 is an off-white, non-hygroscopic and crystalline powder. It has a molecular weight of 501.4 Daltons and a molecular formula of C25H18Cl2N8.

[2] = cited from earlier work

Compound | solubility ([1]; 0.1 N HCl, simulated gastric fluid, read-out: solubility in 0.1 N HCl) [µg/mL] | solubility in 0.1 N NaOH ([1]; 0.1 N NaOH) | solubility ([1]; aqueous buffer, citrate-HCl buffer pH 4, read-out: solubility in citrate-HCl buffer pH 4) [µg/mL] | solubility in borate-HCl buffer pH 8 ([1]; borate-HCl buffer pH 8) | solubility in borate-KCl—NaOH buffer pH 10 ([1]; borate-KCl—NaOH buffer pH 10) | solubility in citrate-HCl buffer pH 2 ([1]; citrate-HCl buffer pH 2) | solubility in citrate-NaOH buffer pH 6 ([1]; citrate-NaOH buffer pH 6) | solubility ([1]; gastric fluid, simulated gastric fluid, read-out: solubility in gastric fluid) [µg/mL] | solubility in intestinal fluid ([1]; intestinal fluid) | solubility in water [1] | DLTs at 200 mg BID ([2]; 200 mg BID dose, dosed for 200 days) | patients stopping treatment due to adverse events (grade 3 or 4) ([2]; 13 cancer patients) | Dose limiting toxicities ([2]; cancer patients, continuous oral BID dosing) | MTD ([2]; cancer patients, orally BID, continuous dosing for up to 56 days) [mg] | Most common AEs ([2]; cancer patients) | solubility in 0.1 N HCl ([1]; 0.1 N HCl) | solubility in citrate-HCl buffer ([1]; citrate-HCl buffer) | solubility in citrate-NaOH buffer ([1]; citrate-NaOH buffer) | solubility in phosphate buffers ([1]; phosphate buffers)
Cn1cncc1[C@@](N)(c1ccc(Cl)cc1)c1ccc2c(c1)c(-c1cccc(Cl)c1)nc1nnnn12 [R208176] | 10000 to 33000 (≈ 19.9 to 65.8 mM) | practically insoluble | 100 to 1000 (≈ 0.199 to 1.99 mM) | practically insoluble | practically insoluble | slightly soluble | practically insoluble | 10000 to 33000 (≈ 19.9 to 65.8 mM) | practically insoluble | practically insoluble |  |  |  |  |  |  |  |  | 
Cn1cncc1[C@@](N)(c1ccc(Cl)cc1)c1ccc2c(c1)c(-c1cccc(Cl)c1)cc(=O)n2C [tipifarnib, (R)-6-[amino(4-chlorophenyl)(1-methyl-1H-imidazol-5-yl)methyl]-4-(3-chlorophenyl)-1-methyl-2(1H)-quinolinone] |  |  |  |  |  |  |  |  |  | insoluble | No DLTs were observed | 4 of 13 | granulocytopenia and neuropathy | 300 | gastrointestinal-related | moderately soluble | slightly soluble | insoluble | insoluble

Reference: patent US20180338993A1, “TREATMENT OF HEPATITIS DELTA VIRUS INFECTION” (Eiger BioPharmaceuticals, Inc., priority 2014, published 2018)
